pIC50: −log10 of the molar value. Converted amounts (≈) assume the structure as drawn.
Tests used:
PC-3 = assay: Antiproliferative activity against human PC-3 cells assessed as cell growth inhibition; type: functional, cell-based
Bacillus subtilis = assay: Antimicrobial activity against Bacillus subtilis assessed as bacterial growth inhibition; type: functional
Staphylococcus aureus = assay: Antimicrobial activity against Staphylococcus aureus USA300 assessed as bacterial growth inhibition; type: functional
HCT-116 [1] = assay: Induction of apoptosis in human HCT-116 cells at 30 uM by annexin V-FITC/propidium iodide staining based flow cytometry analysis relative to control; type: functional
HCT-116 [2] = assay: Antiproliferative activity against human HCT-116 cells at 10 uM incubated for 48 hrs by MTS assay relative to control; type: functional
HCT-116 [3] = assay: Antiproliferative activity against human HCT-116 cells at 20 uM incubated for 48 hrs by MTS assay relative to control; type: functional
HCT-116 [4] = assay: Antiproliferative activity against human HCT-116 cells at 20 uM incubated for 48 hrs in presence of PPD by MTS assay relative to control; type: functional
HCT-116 [5] = assay: Antiproliferative activity against human HCT-116 cells at 30 uM incubated for 48 hrs in presence of PPD by MTS assay relative to control; type: functional
HCT-116 [6] = assay: Antiproliferative activity against human HCT-116 cells at 30 uM incubated for 48 hrs by MTS assay relative to control; type: functional
HCT-116 [7] = assay: Induction of apoptosis in human HCT-116 cells at 30 uM in presence of PPD by annexin V-FITC/propidium iodide staining based flow cytometry analysis relative to control; type: functional
HCT-116 [8] = assay: Antiproliferative activity against human HCT-116 cells at 10 uM incubated for 48 hrs in presence of PPD by MTS assay relative to control; type: functional
Mus musculus = assay: In vivo radioprotective activity in gamma-irradiated ICR mouse assessed as inhibition of radiation-induced apoptosis frequency relative to control; type: functional; design: scale not given: the % may be the effect or the level left
HCT-116 [9] = assay: Induction of apoptosis in human HCT-116 cells at 20 uM in presence of epicatechin at 250 uM relative to control; type: functional
HeLa [10] = assay: Antiproliferative activity against human HeLa cells assessed as cell growth inhibition measured after 24 hrs by [3H]thymidine incorporation assay; type: functional, cell-based
HCT-116 [11] = assay: Antiproliferative activity against human HCT-116 cells assessed as cell growth inhibition at 20 uM relative to control; type: functional; design: scale not given: the % may be the effect or the level left
HCT-116 [12] = assay: Induction of apoptosis in human HCT-116 cells at 20 uM at 20 uM relative to control; type: functional
HCT-116 [13] = assay: Antiproliferative activity against human HCT-116 cells assessed as cell growth inhibition at 20 uM in presence of epicatechin at 250 uM relative to control; type: functional; design: scale not given: the % may be the effect or the level left
HCT-116 [14] = assay: Antiproliferative activity against human HCT-116 cells assessed as cell growth inhibition at 20 uM in presence of epicatechin at 150 uM relative to control; type: functional; design: scale not given: the % may be the effect or the level left
HCT-116 [15] = assay: Antiproliferative activity against human HCT-116 cells assessed as cell growth inhibition at 20 uM in presence of epicatechin at 200 uM relative to control; type: functional; design: scale not given: the % may be the effect or the level left
HCT-116 [16] = assay: Induction of apoptosis in human HCT-116 cells at 20 uM in presence of epicatechin at 200 uM relative to control; type: functional
HCT-116 [17] = assay: Induction of apoptosis in human HCT-116 cells at 20 uM in presence of epicatechin at 150 uM relative to control; type: functional
SK-HEP1 = assay: Antiproliferative activity against human SK-HEP1 cells assessed as cell growth inhibition measured after 24 hrs by [3H]thymidine incorporation assay; type: functional, cell-based
SW480 = assay: Antiproliferative activity against human SW480 cells assessed as cell growth inhibition; type: functional, cell-based
MCF7 = assay: Antiproliferative activity against human MCF7 cells assessed as cell growth inhibition; type: functional, cell-based
HCT-116 [18] = assay: Antiproliferative activity against human HCT-116 cells assessed as cell growth inhibition; type: functional, cell-based
HeLa [19] = assay: Antiproliferative activity against human HeLa cells assessed as cell growth inhibition; type: functional, cell-based

SMILES: COc1cc(/C=C2/C[C@@]3(C)C(CC[C@]4(C)C3C[C@@H](O)C3C([C@@]5(C)CCCC(C)(C)O5)CC[C@]34C)C(C)(C)C2=O)cc(OC)c1OC (stereo partly drawn)
- pIC50 (PC-3): 4.34

SMILES: CC(C)(O)[C@@H]1CC[C@@](C)([C@H]2CC[C@]3(C)C2[C@H](O)CC2[C@@]4(C)CC[C@H](OC(=O)C5CCNCC5)C(C)(C)C4CC[C@]23C)O1 (stereo partly drawn)
- MIC (Bacillus subtilis): 2 µg/mL (≈ 3.4 µM)
- MIC (Staphylococcus aureus): 168 µg/mL (≈ 286 µM)

SMILES: CC(C)(O)[C@H]1CC[C@@](C)([C@H]2CC[C@]3(C)C2[C@H](O)CC2[C@@]4(C)CC[C@H](OC(=O)C5CCNCC5)C(C)(C)C4CC[C@]23C)O1 (stereo partly drawn)
- MIC (Bacillus subtilis): 2 µg/mL (≈ 3.4 µM)
- MIC (Staphylococcus aureus): 8 µg/mL (≈ 13.6 µM)

SMILES: O=c1[nH]cc(F)c(=O)[nH]1 [FLUOROURACIL]
- Activity (HCT-116 [1]): 5%
- Activity (HCT-116 [2]): 5.7%
- Activity (HCT-116 [3]): 20.2%
- Activity (HCT-116 [4]): 27.4%
- Activity (HCT-116 [5]): 49.4%
- Activity (HCT-116 [6]): 30.1%
- Activity (HCT-116 [7]): 28.8%
- Activity (HCT-116 [8]): 13.8%

SMILES: CC1(C)CCC[C@](C)(C2CC[C@]3(C)C2[C@H](O)CC2[C@@]4(C)CC[C@H](O)C(C)(C)C4CC[C@]23C)O1 (stereo partly drawn)
- Activity (Mus musculus): 29.5%
- Activity (HCT-116 [9]): 25.8%
- pIC50 (HeLa [10]): 5.92
- Activity (HCT-116 [11]): 28.7%
- Activity (HCT-116 [12]): 7.2%
- Activity (HCT-116 [13]): 94.7%
- Activity (HCT-116 [14]): 50.7%
- Activity (HCT-116 [15]): 97.2%
- Activity (HCT-116 [16]): 16.6%
- Activity (HCT-116 [17]): 11.9%
- pIC50 (SK-HEP1): 6.10

SMILES: CC(=O)O[C@H]1CC[C@@]2(C)C(CC[C@]3(C)C2C[C@@H](O)C2C([C@@](C)(O)CCC=C(C)C)CC[C@]23C)C1(C)C (stereo partly drawn)
- pIC50 (SW480): 4.52
- pIC50 (MCF7): 4.43
- pIC50 (HCT-116 [18]): 4.36

SMILES: CC(C)(O)[C@@H]1CC[C@@](C)([C@H]2CC[C@]3(C)C2[C@H](O)CC2[C@@]4(C)CC[C@H](O)C(C)(C)C4CC[C@]23C)O1 (stereo partly drawn)
- pIC50 (HeLa [19]): 4.75

From ChEMBL document CHEMBL5233223, “Dammarane-type leads panaxadiol and protopanaxadiol for drug discovery: Biological activity and structural modification” (Eur J Med Chem, 2020)
